From US9422274B2, “Oxazolidinone derivatives and composition for preventing or treating hepatitis C containing the same” (KOREA INSTITUTE OF SCIENCE AND TECHNOLOGY, priority 2013, dated 2016) come the findings set out here.

For experiment [1], the system named is Hepatitis C virus. Put plainly: Anti-viral activity test (HCVcc, Type 2a), JFH 5a-Rluc luciferase in Huh7.5.1 cell line. The format is cell-based. As to the method:
The inhibitory effect of the oxazolidinone compounds on HCV replicon and NS5A were HCV was tested by the method disclosed in KR-A 10-2010-0007937 or US-A 2010/0215696.
The cell lines containing replicon were prepared by preparing JFH 5a-Rluc (plasmid expressing Renilla luciferase reporter protein) RNA according to the method disclosed in the documents, introducing the JFH 5a-Rluc RNA into host cell lines (Huh7.5.1 cell line) by electroporation and infecting the host cell lines (Zhnog et al., Proc. Natl. Acad. Sci. USA, 102, 9294-9299). After the infected cell lines were cultured with or without the treatment of the oxazolidinone compound, the luciferase activity was detected to obtain the inhibitory effect of […] replicon replication. EC50) of the compound was determined by performing the test at various concentrations of the compound.
The compounds Example 1 to 17 were tested for anti-viral activity on Hepatitis C virus, according to the method of KR10-2010-0007937 (published on Jan. 22, 2010) or US2010/0215696 (published on Aug. 26, 2010).
The cell lines containing replicon were prepared by preparing JFH 5a-Rluc (plasmid expressing Renilla luciferase reporter protein) RNA according to the method disclosed in the documents, introducing the JFH 5a-Rluc RNA into host cell lines (Huh7.5.1 cell line) by electroporation and infecting the host cell lines (Zhnog et al., Proc. Natl. Acad. Sci. USA, 102, 9294-9299). After the infected cell lines were cultured with or without the treatment of 1 mM of the oxazolidinone compounds of Examples 1 to 17, the host cell lines were obtained on 1, 2 and 3 days after treatment, and the luciferase activity produced from the host cells was measured.
The luciferase activity of negative control which was not treated with the oxazolidinone compound is set to 100%. At various amounts of the oxazolidinone compounds, the luciferase activities were calculated based on the negative control to obtain the inhibition rate of HCV (%). The positive control was Interferon (INF)(Sigma, SRP4595).

Experiment [2] deals with Hepatitis C virus. The experiment is described as above. The format is cell-based, Hepatitis C virus (HCVcc.

The term inhibition denotes the change of the read-out against control, counted positive when it falls. Turning to `COC(=O)N[C@H](C(=O)NC[C@H]1CN(c2ccc(-c3ccc(-c4cnc([C@@H]5CCCN5C(=O)[C@@H](NC(=O)OC)C(C)C)[nH]4)cc3)c(F)c2)C(=O)O1)C(C)C` [Example 15, Methyl ((S)-1-((((S)-3-(2-fluoro-4′-(2-((S)-1-((methoxycarbonyl)-L-valyl)pyrrolidin-2-yl)-1H-imidazol-5-yl)-[1,1′-biphenyl]-4-yl)-2-oxooxazolidin-5-yl)methyl)amino)-3-methyl-1-oxobutan-2-yl)carbamate], in the experiment with Hepatitis C virus [1] (Huh-7.5.1, luciferase activity, negative control = 100%, Huh7.5.1 cells infected with JFH 5a-Rluc, read-out: HCV inhibition rate %), the inhibition was determined as 99.8%. Besides, the EC50 in the experiment with Hepatitis C virus [1] (Huh-7.5.1, read-out: EC50 (concentration of compound to inhibit the 50% of viral growth)) was found to be 1 nM. For the same compound, the inhibition at 0.001 µM in the experiment on Hepatitis C virus [2] (Hepatitis C virus, Huh-7.5.1, read-out: inhibition rate) is 44.3%. Further, the “remnant HCV amount” value in the experiment on Hepatitis C virus [2] (treated at a concentration of 1 nM) worked out at 55.7%.
